Measurements from paper PMC5441612, “Oligopeptides as full-length New Delhi metallo-β-lactamase-1 (NDM-1) inhibitors” (PLoS ONE, 2017).
Residues, ends and D or L forms follow the SMILES beside them.

What was measured:
full-length NDM-1 = full-length NDM-1 (Klebsiella pneumoniae, UniProt C7C422); test: biochemical; conditions: IC50 (Mean±SD), full-length NDM-1, ertapenem 80 μM as substrate, 15 min pre-incubation at 35°C
Procedure: The full-length NDM-1 enzyme was expressed and purified by a method from a previously published procedure. All the oligopeptides were synthesized by GL Biochem. (Shanghai), Ltd., China, with a purity of >95%. The target of NDM-1 enzyme was pre-incubated with the desired oligopeptide for 15min at 35°C before the assay by adding the inhibitor. The oligopeptides used for testing were dissolved in 10mM phosphate-buffered saline (PBS) buffer (pH7.0), containing dimethyl sulfoxide (DMSO) with the final concentration of 0.25% (V/V). […] Ertapenem (80μM) was used as report substrate. The hydrolysis of the substrate by the NDM-1 was detected by monitoring the variation in absorbance resulting from the opening of the β-lactam ring. All the determinations were made on a spectrophotometer (UV-1750, Shimadzu, Japan) connected to a personal computer. The enzymatic reactions were carried out in a total volume of 100μL. The reaction buffer contained 20mM HEPES buffer, pH7.3, 0.25M NaCl, 1mM 1,4-Dithio-DL-threitol (DTT) (Beinglay Biotech Corp., Wuhan, China), 50μM Zn(NO3)2 and 10mg/ml bovine serum albumin (BSA) preventing NDM-1 denaturation. The ultraviolet (UV) absorbance detector was set at 300 nm, a λ max for ertapenem. The IC50 values were determined more than three times by fitting the concentration dependence of residual enzyme activity to the nonlinear regression (curve fit) using GraphPad Prism (GraphPad Software, La Jolla, America).

E. coli BL21 (DE3) = test: MIC of β-lactam antibiotics by E-test method; type: cell-based; conditions: Escherichia coli, 24 h
[1] = system: E. coli BL21 (DE3)/pET30a-NDM-1; test: MIC of β-lactam antibiotics by E-test method; type: cell-based; conditions: Escherichia coli, 24 h
Procedure: (§1) E. coli BL21(DE3) cells were transformed with the pET30a plasmid encoding the NDM-1 gene (Gen Bank ID: HQ162469). E. coli BL21(DE3)/pET30a-NDM-1 was grown overnight at 37°C in liquid Luria-Bertani (LB) broth containing 50μg/ml kanamycin, 100μg/ml ampicillin and 50μM Zn(NO3)2 to select for E. coli clones containing the plasmid of pET30a-NDM-1. Two strains, E. coli BL21 (DE3)/pET30a-NDM-1 overexpressing NDM-1 and P. aeruginosa isolated from Renmin Hospital of Wuhan University with blaNDM-1 confirmed by PCR (data not shown), were cultured overnight, respectively. The cultures were diluted 1:100, grown to an optical density at 600 nm (OD600) of ~0.6, and spread onto LB agar. After naturally drying for five minutes, E-test strips (AB Biodisk, Solna, Sweden) were applied to the ~150mm Mueller-Hinton (MH) (Tianhe Microbial Agents, Hangzhou, China) agar plates and grown for 24h at 35°C to 37°C without further intervention. The antibiotic strips respectively containing penicillin G, ampicillin, cephalothin, cefuroxime, ceftazidime, cefepime, meropenem, ertapenem, aztreonam were used for testing susceptibility. The results were obtained in accordance with the Clinical and Laboratory Standards Institute (CLSI) guidelines.

[2] = system: P. aeruginosa with blaNDM-1; test: MIC of β-lactam antibiotics by E-test method; type: cell-based; conditions: Pseudomonas aeruginosa, 24 h
Procedure: as §1

[3] = system: E. coli BL21 (DE3)/pET30a; test: MIC of β-lactam antibiotics by E-test method; type: cell-based; conditions: Escherichia coli, 24 h
[4] = system: E. coli BL21 (DE3)/pET30a-NDM-1; test: Synergistic antibacterial effect of ertapenem combined with oligopeptide (twofold broth dilution); type: cell-based; conditions: ertapenem alone at 256 μg/ml; NDM-1 strain
Procedure: E. coli BL21 (DE3)/pET30a-NDM-1 overexpressing NDM-1 and a clinical isolate of P. aeruginosa with blaNDM-1 were also utilized to evaluate the bioactivities of oligopeptides, which reversed NDM-1-mediated β-lactam antibiotics resistance. Determination of antibacterial synergy was performed using a serial twofold dilutions method recommended by CLSI guidelines. E. coli BL21 (DE3)/pET30a was used as a control in the experiment. Minimum inhibitory concentrations (MICs) of the agents were determined by the twofold serial dilution with Mueller-Hinton (MH) broth (Shifeng Biotech Corp., Shanghai, China). For this assay, E. coli BL21 (DE3)/pET30a-NDM-1 was grown overnight in MH broth media containing 50μg/ml kanamycin at 37°C [23]. β-lactam antibiotic and oligopeptide at various concentrations were added to 120μL broth media of a 1:20 dilution of the overnight culture, resulting the final volume of 150μL [24]. The growth of bacterial cultures was set up in 96-well microplates, which incubated at 37°C with constant shaking continuously for 18 h and a reading at 630 nm was taken to determine the MICs of synergistic effect. The lowest antibiotic concentration preventing visible growth was deemed to be the MIC value. […] Every data of reading was repeated thrice, and each experiment mentioned above was performed at least two times.

Chain of full-length NDM-1 (C7C422 29-270 limits assumed): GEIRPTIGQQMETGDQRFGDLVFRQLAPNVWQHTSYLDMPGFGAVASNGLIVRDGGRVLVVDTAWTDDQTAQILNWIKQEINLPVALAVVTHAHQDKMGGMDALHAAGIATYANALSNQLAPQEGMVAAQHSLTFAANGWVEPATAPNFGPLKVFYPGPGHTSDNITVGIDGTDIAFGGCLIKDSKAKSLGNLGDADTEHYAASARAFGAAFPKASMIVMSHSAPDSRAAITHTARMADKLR

SMILES | IC50 (full-length NDM-1) [µM] | MIC (E. coli BL21 (DE3)) [µg/mL] | MIC [1] [µg/mL] | MIC [2] [µg/mL] | MIC [3] [µg/mL] | growth in broth media containing ertapenem [4]
N[C@@H](CS)C(=O)N[C@@H](Cc1c[nH]cn1)C(=O)O [Oligopeptide 1, Cys-His] (H-Cys-His-OH) | 182 ± 14 |  |  |  |  | 
N[C@@H](CS)C(=O)NCC(=O)N[C@@H](Cc1c[nH]cn1)C(=O)O [Oligopeptide 6, Cys-Gly-His] (H-Cys-Gly-His-OH) | 263 ± 21 |  |  |  |  | 
CO/N=C(\C(=O)N[C@@H]1C(=O)N2C(C(=O)[O-])=C(C[N+]3(C)CCCC3)CS[C@H]12)c1csc(N)n1 [Cefepime] |  | 0.08 | > 64 | > 64 | 0.08 | 
N[C@@H](CS)C(=O)N[C@@H](Cc1ccc(O)cc1)C(=O)O [Oligopeptide 3, Cys-Tyr] (H-Cys-Tyr-OH) | > 300 |  |  |  |  | 
N[C@@H](CS)C(=O)N[C@@H](Cc1ccccc1)C(=O)O [Oligopeptide 2, Cys-Phe] (H-Cys-Phe-OH) | 113 ± 9 |  |  |  |  | 
C[C@H]1[C@H](NC(=O)/C(=N\OC(C)(C)C(=O)O)c2csc(N)n2)C(=O)N1S(=O)(=O)O [Aztreonam] |  | 0.047 | > 256 | > 256 | 0.064 | 
CO/N=C(\C(=O)N[C@@H]1C(=O)N2C(C(=O)O)=C(COC(N)=O)CS[C@H]12)c1ccco1 [Cefuroxime] |  | 2 | > 256 | 256 | 3 | 
CC(C)(O/N=C(\C(=O)N[C@@H]1C(=O)N2C(C(=O)[O-])=C(C[n+]3ccccc3)CS[C@H]12)c1csc(N)n1)C(=O)O [Ceftazidime] |  | 0.38 | > 256 | > 256 | 0.25 | 
CC(C)[C@H](NC(=O)CNC(=O)[C@@H](N)CS)C(=O)O [Oligopeptide 9, Cys-Gly-Val] (H-Cys-Gly-Val-OH) | 249 ± 21 |  |  |  |  | 
CC(=O)OCC1=C(C(=O)O)N2C(=O)[C@@H](NC(=O)Cc3cccs3)[C@H]2SC1 [Cephalothin] |  | 6 | > 256 | > 256 | 4 | 
N[C@@H](CS)C(=O)NCC(=O)N[C@@H](Cc1ccccc1)C(=O)O [Oligopeptide 7, Cys-Gly-Phe] (H-Cys-Gly-Phe-OH) | 144 ± 13 |  |  |  |  | 
N[C@@H](CS)C(=O)NCC(=O)N[C@@H](Cc1ccc(O)cc1)C(=O)O [Oligopeptide 8, Cys-Gly-Tyr] (H-Cys-Gly-Tyr-OH) | > 300 |  |  |  |  | 
CC(C)[C@H](NC(=O)[C@@H](N)CS)C(=O)O [Oligopeptide 4, Cys-Val] (H-Cys-Val-OH) | 235 ± 18 |  |  |  |  | 
CO/N=C(\C(=O)N[C@@H]1C(=O)N2C(C(=O)O)=C(COC(C)=O)CS[C@H]12)c1csc(N)n1 [Cefotaxime] |  | 0.125 | > 256 | > 256 | 0.25 | 
CC1(C)S[C@@H]2[C@H](NC(=O)[C@H](N)c3ccccc3)C(=O)N2[C@H]1C(=O)O [Ampicillin] |  | 6 | > 256 | > 256 | 8 | 
CC1(C)S[C@@H]2[C@H](NC(=O)Cc3ccccc3)C(=O)N2[C@H]1C(=O)O [Penicillin G] |  | 12 | > 32 | > 32 | 12 | 
C[C@@H](O)[C@H]1C(=O)N2C(C(=O)O)=C(S[C@@H]3CN[C@H](C(=O)Nc4cccc(C(=O)O)c4)C3)[C@H](C)[C@H]12 [Ertapenem] |  | 0.094 | > 32 | > 32 | 0.094 | still able to grow
N[C@@H](CS)C(=O)NCC(=O)N[C@@H](CC(=O)O)C(=O)O [Oligopeptide 10, Cys-Gly-Asp] (H-Cys-Gly-Asp-OH) | > 300 |  |  |  |  | 
N[C@@H](CS)C(=O)N[C@@H](CC(=O)O)C(=O)O [Oligopeptide 5, Cys-Asp] (H-Cys-Asp-OH) | 68 ± 5 |  |  |  |  | 
C[C@@H](O)[C@H]1C(=O)N2C(C(=O)O)=C(S[C@@H]3CN[C@H](C(=O)N(C)C)C3)[C@H](C)[C@H]12 [Meropenem] |  | 0.032 | > 32 | > 32 | 0.047 | 
